Measurements: PubChem BioAssay AID330 (DTP/NCI, 2004)
Where “and” joins values, the source holds several entries; their conditions need not be identical. Equal entries are not always repeated. Inconclusive results and toxic doses are left out.

Tested on: P388 leukemia ip, CD2F1 mice, survival T/C
Assay: NCI In Vivo Anticancer Drug Screen. Data for tumor model P388 Leukemia (intraperitoneal) in CD2F1 (CDF1) mice
Settings: endpoint: median survival time, higher = longer survival
Method in brief: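 Mice carrying the transplanted tumor received test compound or vehicle. Survival was recorded in each group, and the value is the treated-group measurement divided by that of the vehicle-treated control group.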

[1] = dose: 50.0 mg/kg/injection, schedule: Q01DX005 (ip), vehicle: saline with Tween-80
[2] = dose: 100.0 mg/kg/injection, schedule: Q01DX005 (ip), vehicle: saline with Tween-80
[3] = dose: 200.0 mg/kg/injection, schedule: Q01DX005 (ip), vehicle: saline with Tween-80
[4] = dose: 12.5 mg/kg/injection, schedule: Q04DX003 (ip), vehicle: saline with Tween-80
[5] = dose: 50.0 mg/kg/injection, schedule: Q04DX003 (ip), vehicle: saline with Tween-80
[6] = dose: 100.0 mg/kg/injection, schedule: Q04DX003 (ip), vehicle: saline with Tween-80
[7] = dose: 50.0 mg/kg/injection, schedule: Q01DX005 (ip), vehicle: Klucel (hydroxypropylcellulose) (HPC)
[8] = dose: 100.0 mg/kg/injection, schedule: Q01DX005 (ip), vehicle: Klucel (hydroxypropylcellulose) (HPC)
[9] = dose: 12.5 mg/kg/injection, schedule: Q01DX009 (ip), vehicle: saline
[10] = dose: 25.0 mg/kg/injection, schedule: Q01DX009 (ip), vehicle: saline
[11] = dose: 50.0 mg/kg/injection, schedule: Q01DX009 (ip), vehicle: saline
[12] = dose: 200.0 mg/kg/injection, schedule: Q01DX009 (ip), vehicle: saline
[13] = dose: 50.0 mg/kg/injection, schedule: Q01DX009 (ip), vehicle: saline with Tween-80

## Cc1cc(NC(=O)c2ccc(NC(=O)c3ccc(N)cc3)cc2)ccc1N=Nc1ccc2c(O)c(N=Nc3ccc4cc(S(=O)(=O)O)ccc4c3)c(S(=O)(=O)O)cc2c1
[1]
  T/C: 94 % of control
[2]
  T/C: 103 % of control
[3]
  T/C: 94 % of control

## N#Cc1cc(C23CCC(C2)N3)ccc1[N+](=O)[O-] (stereo unspecified)
dose: 100.0 mg/kg/injection, schedule: Q04DX003 (ip), vehicle: saline
  T/C: 105 % of control
dose: 200.0 mg/kg/injection, schedule: Q04DX003 (ip), vehicle: saline
  T/C: 91 % of control
dose: 400.0 mg/kg/injection, schedule: Q04DX003 (ip), vehicle: saline
  T/C: 92 % of control

## [Cu+2].c1nn[nH]n1
dose: 12.5 mg/kg/injection, schedule: Q04DX003 (ip), vehicle: Klucel (hydroxypropylcellulose) (HPC)
  T/C: 93 % of control
dose: 25.0 mg/kg/injection, schedule: Q04DX003 (ip), vehicle: Klucel (hydroxypropylcellulose) (HPC)
  T/C: 97 % of control
dose: 50.0 mg/kg/injection, schedule: Q04DX003 (ip), vehicle: Klucel (hydroxypropylcellulose) (HPC)
  T/C: 95 % of control

## Cc1ccc2nc(N(C)C)cc(N(C)C)c2c1
dose: 6.25 mg/kg/injection, schedule: Q01DX009 (ip), vehicle: Klucel (hydroxypropylcellulose) (HPC)
  T/C: 99 % of control
dose: 12.5 mg/kg/injection, schedule: Q01DX009 (ip), vehicle: Klucel (hydroxypropylcellulose) (HPC)
  T/C: 110 % of control
dose: 25.0 mg/kg/injection, schedule: Q01DX009 (ip), vehicle: Klucel (hydroxypropylcellulose) (HPC)
  T/C: 103 % of control

## CCOC(=O)/C=C(\C)NC1CC(OC2CC(O)(C(=O)CO)Cc3c(O)c4c(c(O)c32)C(=O)c2c(OC)cccc2C4=O)OC(C)C1O (stereo unspecified)
dose: 6.25 mg/kg/injection, schedule: Q04DX003 (ip), vehicle: saline with Tween-80
  T/C: 119 % of control
[4]
  T/C: 113 % of control
[5]
  T/C: 172 % of control

## COc1ccc(/C=C/c2cc(OC)cc(=O)o2)cc1
[4]
  T/C: 100 % of control
dose: 25.0 mg/kg/injection, schedule: Q04DX003 (ip), vehicle: saline with Tween-80
  T/C: 99 % of control
[5]
  T/C: 100 % of control
[6]
  T/C: 100 % of control

## COc1ccc(N=Nc2ccc(N)c3cccnc23)c(OC)c1
dose: 100.0 mg/kg/injection, schedule: Q04DX002 (ip), vehicle: saline with Tween-80
  T/C: 97 % of control
dose: 200.0 mg/kg/injection, schedule: Q04DX002 (ip), vehicle: saline with Tween-80
  T/C: 106 % of control
dose: 400.0 mg/kg/injection, schedule: Q04DX002 (ip), vehicle: saline with Tween-80
  T/C: 92 % of control

## CN1C2CCC1CC(O)(c1ccc(Cl)cc1)C2 (stereo unspecified)
dose: 12.5 mg/kg/injection, schedule: Q01DX005 (ip), vehicle: Klucel (hydroxypropylcellulose) (HPC)
  T/C: 100 % of control
dose: 25.0 mg/kg/injection, schedule: Q01DX005 (ip), vehicle: Klucel (hydroxypropylcellulose) (HPC)
  T/C: 100 % of control
[7]
  T/C: 107 % of control
[8]
  T/C: 109 % of control

## CS/C(=C/c1ccc2ccccc2[n+]1C)N1CCSCC1
dose: 1.56 mg/kg/injection, schedule: Q01DX005 (ip), vehicle: saline with Tween-80
  T/C: 108 % of control
dose: 3.13 mg/kg/injection, schedule: Q01DX005 (ip), vehicle: saline with Tween-80
  T/C: 113 % of control
dose: 6.25 mg/kg/injection, schedule: Q01DX005 (ip), vehicle: saline with Tween-80
  T/C: 113 % of control

## OCCCN1CCN(CCCO)CC1
[9]
  T/C: 103 % of control and 96 % of control
[10]
  T/C: 97 % of control and 98 % of control
[11]
  T/C: 92 % of control and 97 % of control
dose: 100.0 mg/kg/injection, schedule: Q01DX009 (ip), vehicle: saline
  T/C: 101 % of control and 95 % of control
[12]
  T/C: 100 % of control and 106 % of control
dose: 400.0 mg/kg/injection, schedule: Q01DX009 (ip), vehicle: saline
  T/C: 103 % of control and 91 % of control

## CC[n+]1ccc(/C=C\c2c(Cl)cccc2Cl)cc1
dose: 6.25 mg/kg/injection, schedule: Q01DX009 (ip), vehicle: saline
  T/C: 96 % of control
[9]
  T/C: 104 % of control
[10]
  T/C: 106 % of control

## CN(CN1C(=O)CCC1=O)CN1C(=O)CCC1=O
dose: 30.0 mg/kg/injection, schedule: Q01DX005 (ip), vehicle: saline
  T/C: 106 % of control
dose: 60.0 mg/kg/injection, schedule: Q01DX005 (ip), vehicle: saline
  T/C: 106 % of control and 110 % of control
dose: 120.0 mg/kg/injection, schedule: Q01DX005 (ip), vehicle: saline
  T/C: 108 % of control
dose: 240.0 mg/kg/injection, schedule: Q01DX005 (ip), vehicle: saline
  T/C: 119 % of control

## COc1cc(C(=O)c2ccc3c(c2)OCO3)cc(OC)c1OC
[7]
  T/C: 98 % of control
[8]
  T/C: 93 % of control
dose: 200.0 mg/kg/injection, schedule: Q01DX005 (ip), vehicle: Klucel (hydroxypropylcellulose) (HPC)
  T/C: 99 % of control

## O=C(Nc1ccccc1-c1ccccc1)c1cccc2ccccc12
[1]
  T/C: 106 % of control
[2]
  T/C: 94 % of control
[3]
  T/C: 90 % of control

## Cc1cc(C(C)(C)C)ccc1SP(Sc1ccc(C(C)(C)C)cc1C)Sc1ccc(C(C)(C)C)cc1C
dose: 50.0 mg/kg/injection, schedule: Q01DX009 (ip), vehicle: Klucel (hydroxypropylcellulose) (HPC)
  T/C: 100 % of control
dose: 100.0 mg/kg/injection, schedule: Q01DX009 (ip), vehicle: Klucel (hydroxypropylcellulose) (HPC)
  T/C: 92 % of control
dose: 200.0 mg/kg/injection, schedule: Q01DX009 (ip), vehicle: Klucel (hydroxypropylcellulose) (HPC)
  T/C: 92 % of control

## CSc1nc2c3ccccc3ccn2c(=N)c1C#N
dose: 25.0 mg/kg/injection, schedule: Q04DX002 (ip), vehicle: saline
  T/C: 104 % of control
dose: 50.0 mg/kg/injection, schedule: Q04DX002 (ip), vehicle: saline
  T/C: 109 % of control

## NNC(=O)C(NC=O)C(N)=O (stereo unspecified)
dose: 12.5 mg/kg/injection, schedule: Q01DX009 (ip), vehicle: saline with Tween-80
  T/C: 107 % of control
dose: 25.0 mg/kg/injection, schedule: Q01DX009 (ip), vehicle: saline with Tween-80
  T/C: 100 % of control
[13]
  T/C: 98 % of control
[11]
  T/C: 88 % of control
[12]
  T/C: 92 % of control

## COc1cc(CC2C(=O)OCC2Cc2cc(OC)c3c(c2)C(CO)C(c2ccc(O)c(OC)c2)O3)ccc1O (stereo unspecified)
dose: 5.0 mg/kg/injection, schedule: Q01DX009 (ip), vehicle: saline with Tween-80
  T/C: 102 % of control
dose: 10.0 mg/kg/injection, schedule: Q01DX009 (ip), vehicle: saline with Tween-80
  T/C: 118 % of control
dose: 20.0 mg/kg/injection, schedule: Q01DX009 (ip), vehicle: saline with Tween-80
  T/C: 101 % of control
dose: 40.0 mg/kg/injection, schedule: Q01DX009 (ip), vehicle: saline with Tween-80
  T/C: 108 % of control

## CCOC(=O)[C]1([Bi]([CH3])[CH3])N=NC(C(=O)OC)=C1C(=O)OC (stereo unspecified)
dose: 25.0 mg/kg/injection, schedule: Q04DX003 (ip), vehicle: saline
  T/C: 93 % of control
dose: 50.0 mg/kg/injection, schedule: Q04DX003 (ip), vehicle: saline
  T/C: 97 % of control
[6]
  T/C: 99 % of control

## CCCCCCN(CCCCCC)CC(O)c1cccc2ccc(Cl)cc12 (stereo unspecified)
[1]
  T/C: 90 % of control
[2]
  T/C: 95 % of control
[3]
  T/C: 109 % of control

## N#Cc1c(N)nc2c(c(-c3ccc(Cl)cc3)nn2-c2ccccc2)c1C#N
dose: 7.5 mg/kg/injection, schedule: Q01DX005 (ip), vehicle: saline with Tween-80
  T/C: 97 % of control
dose: 15.0 mg/kg/injection, schedule: Q01DX005 (ip), vehicle: saline with Tween-80
  T/C: 86 % of control and 96 % of control
dose: 30.0 mg/kg/injection, schedule: Q01DX005 (ip), vehicle: saline with Tween-80
  T/C: 89 % of control and 90 % of control
dose: 120.0 mg/kg/injection, schedule: Q01DX005 (ip), vehicle: saline with Tween-80
  T/C: 86 % of control and 91 % of control
dose: 240.0 mg/kg/injection, schedule: Q01DX005 (ip), vehicle: saline with Tween-80
  T/C: 93 % of control

## CC(=O)CC(=O)CCCCC(=O)O
[13]
  T/C: 112 % of control
dose: 100.0 mg/kg/injection, schedule: Q01DX009 (ip), vehicle: saline with Tween-80
  T/C: 112 % of control
dose: 200.0 mg/kg/injection, schedule: Q01DX009 (ip), vehicle: saline with Tween-80
  T/C: 104 % of control
